The results in this text go back to patent publication US20240287154A1, “MC3R AGONIST PEPTIDES” (The Regents of the University of Michigan, priority 2021, published 2024).

Non-standard residues stand in square brackets, D forms with d. Residues, ends and D or L forms follow the SMILES beside them. Phe(4-I) = N[C@@H](Cc1ccc(I)cc1)C(=O)O; NMeH = CN[C@@H](Cc1c[nH]cn1)C(=O)O; dNle = CCCC[C@@H](N)C(=O)O; Nle = CCCC[C@H](N)C(=O)O; dNMeA = CN[C@H](C)C(=O)O; Aib = CC(C)(N)C(=O)O

Chain of human MC4R (P32245 whole entry): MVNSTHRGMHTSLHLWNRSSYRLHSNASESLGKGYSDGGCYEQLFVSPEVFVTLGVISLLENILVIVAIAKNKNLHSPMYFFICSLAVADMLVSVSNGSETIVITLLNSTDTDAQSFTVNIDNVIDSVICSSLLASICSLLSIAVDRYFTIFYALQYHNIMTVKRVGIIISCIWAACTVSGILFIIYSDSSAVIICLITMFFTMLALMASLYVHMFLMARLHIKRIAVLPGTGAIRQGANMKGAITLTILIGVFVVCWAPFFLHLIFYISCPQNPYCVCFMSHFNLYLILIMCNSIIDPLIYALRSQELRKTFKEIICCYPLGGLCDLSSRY

This assay concerns the target human MC4R (Homo sapiens, UniProt P32245). As to the kind of experiment: Intracellular cAMP levels in live cells, MC3R selectivity relative to MC4R. The assay is classed as cell-based. The settings on record: cAMP assays in human MC3R and human MC4R stable cell lines. On the technique in general: cAMP levels reflect the balance of adenylyl cyclase and phosphodiesterase activity.
Take `CCCC[C@H](NC(=O)[C@@H](NC(=O)[C@@H](N)Cc1ccc(O)cc1)C(C)C)C(=O)NCC(=O)N[C@@H](CCCNC(=N)N)C(=O)N[C@@H](Cc1ccccc1)C(=O)N[C@@H](CCCNC(=N)N)C(=O)N[C@H](Cc1c[nH]c2ccccc12)C(=O)N[C@@H](CC(=O)O)C(=O)N[C@@H](CCCNC(=N)N)C(=O)N[C@@H](Cc1ccccc1)C(=O)NCC(=O)O` [CTX-1549, Tyr-Val-Nle-Gly-Arg-Phe-Arg-D-Trp-Asp-Arg-Phe-Gly] (H-YV[Nle]GRFR[dW]DRFG-OH): the “MC3R selectivity (relative to MC4R)” value is 102.

Consider `CCCC[C@H](NC(C)=O)C(=O)NC(C)(C)C(=O)N[C@@H](Cc1c[nH]cn1)C(=O)N[C@@H](Cc1ccc(I)cc1)C(=O)N[C@@H](CCCNC(=N)N)C(=O)N[C@H](Cc1c[nH]c2ccccc12)C(=O)NCC(N)=O` [CTX-1545, Nle-Aib-His-Phe(4-I)-Arg-D-Trp-Gly] (Ac-[Nle][Aib]H[Phe(4-I)]R[dW]G-NH2), for which the “MC3R selectivity (relative to MC4R)” value turned out to be 14.

In the case of `CSCC[C@H](NC(=O)[C@@H](NC(=O)[C@@H](N)Cc1ccc(O)cc1)C(C)C)C(=O)NCC(=O)N[C@@H](CCCNC(=N)N)C(=O)N[C@@H](Cc1ccccc1)C(=O)N[C@@H](CCCNC(=N)N)C(=O)N[C@H](Cc1c[nH]c2ccccc12)C(=O)N[C@@H](CC(=O)O)C(=O)N[C@@H](CCCNC(=N)N)C(=O)N[C@@H](Cc1ccccc1)C(=O)NCC(=O)O` [CTX-1548, Tyr-Val-Met-Gly-Arg-Phe-Arg-D-Trp-Asp-Arg-Phe-Gly] (H-YVMGRFR[dW]DRFG-OH), the “MC3R selectivity (relative to MC4R)” value was 267.

For `CCCC[C@H](NC(C)=O)C(=O)N[C@H](C)C(=O)N[C@@H](Cc1c[nH]cn1)C(=O)N[C@@H](Cc1ccccc1)C(=O)N[C@@H](CCCNC(=N)N)C(=O)N[C@H](Cc1c[nH]c2ccccc12)C(=O)N[C@@H](CC(=O)O)C(N)=O` [CTX-1123, Nle-D-Ala-His-Phe-Arg-D-Trp-Asp] (Ac-[Nle][dA]HFR[dW]D-NH2), the “MC3R selectivity (relative to MC4R)” value stood at 28.

For `CCCC[C@H](NC(C)=O)C(=O)N[C@H](C)C(=O)N[C@@H](Cc1c[nH]cn1)C(=O)N[C@@H](Cc1ccccc1)C(=O)N[C@@H](CCCNC(=N)N)C(=O)N[C@H](Cc1c[nH]c2ccccc12)C(=O)N[C@H](Cc1ccccc1)C(=O)N[C@@H](CCCNC(=N)N)C(=O)N[C@@H](Cc1ccccc1)C(=O)NCC(=O)O` [CTX-1530, Nle-D-Ala-His-Phe-Arg-D-Trp-D-Phe-Arg-Phe-Gly] (Ac-[Nle][dA]HFR[dW][dF]RFG-OH), the “MC3R selectivity (relative to MC4R)” value was 15.

In the case of `CCCC[C@H](NC(C)=O)C(=O)N[C@H](C)C(=O)N(C)[C@@H](Cc1c[nH]cn1)C(=O)N[C@@H](Cc1ccccc1)C(=O)N[C@@H](CCCNC(=N)N)C(=O)N[C@H](Cc1c[nH]c2ccccc12)C(=O)N[C@@H](CC(=O)O)C(=O)N[C@@H](CCCNC(=N)N)C(=O)N[C@@H](Cc1ccccc1)C(=O)NCC(=O)O` [CTX-1186, Nle-D-Ala-NMe-His-Phe-Arg-D-Trp-Asp-Arg-Phe-Gly] (Ac-[Nle][dA][NMeH]FR[dW]DRFG-OH), the “MC3R selectivity (relative to MC4R)” value is given as 1884.

As for `CCCC[C@H](NC(C)=O)C(=O)N(C)[C@H](C)C(=O)N[C@@H](Cc1c[nH]cn1)C(=O)N[C@@H](Cc1ccccc1)C(=O)N[C@@H](CCCNC(=N)N)C(=O)N[C@H](Cc1c[nH]c2ccccc12)C(=O)N[C@@H](CC(=O)O)C(=O)N[C@@H](CCCNC(=N)N)C(=O)N[C@@H](Cc1ccccc1)C(=O)NCC(=O)O` [CTX-1183, Nle-NMe-D-Ala-His-Phe-Arg-D-Trp-Asp-Arg-Phe-Gly] (Ac-[Nle][dNMeA]HFR[dW]DRFG-OH), the “MC3R selectivity (relative to MC4R)” value turned out to be 515.

On to `CCCC[C@H](NC(C)=O)C(=O)N[C@H](C)C(=O)N[C@@H](Cc1c[nH]cn1)C(=O)N[C@@H](Cc1ccc(I)cc1)C(=O)N[C@H](CCCNC(=N)N)C(=O)N[C@@H](Cc1c[nH]c2ccccc12)C(=O)N[C@@H](CC(=O)O)C(=O)N[C@@H](CCCNC(=N)N)C(=O)N[C@@H](Cc1ccccc1)C(=O)NCC(=O)O` [CTX-1501, Nle-D-Ala-His-Phe(4-I)-D-Arg-Trp-Asp-Arg-Phe-Gly] (Ac-[Nle][dA]H[Phe(4-I)][dR]WDRFG-OH), for which the “MC3R selectivity (relative to MC4R)” value came out at 0.01.

Regarding `CCCC[C@H](NC(=O)[C@@H](NC(=O)[C@@H](Cc1ccc(O)cc1)NC(=O)CNC(=O)COCCOCCNC(=O)CNC(=O)CCc1ccc(I)cc1)C(C)C)C(=O)N[C@H](C)C(=O)N[C@@H](Cc1c[nH]cn1)C(=O)N[C@@H](Cc1ccccc1)C(=O)N[C@@H](CCCNC(=N)N)C(=O)N[C@H](Cc1c[nH]c2ccccc12)C(=O)N[C@@H](CC(=O)O)C(=O)N[C@H](CCCNC(=N)N)C(=O)N[C@@H](Cc1ccccc1)C(=O)NCC(=O)O` [CTX-1156, Gly-D-Tyr-Val Nle-D-Ala-His-Phe-Arg-D-Trp-Asp-D-Arg-Phe-Gly], the “MC3R selectivity (relative to MC4R)” value stood at 86.

On to `CCCC[C@H](NC(C)=O)C(=O)N[C@H](CCCC)C(=O)N[C@@H](Cc1c[nH]cn1)C(=O)N[C@@H](Cc1ccccc1)C(=O)N[C@@H](CCCNC(=N)N)C(=O)N[C@H](Cc1c[nH]c2ccccc12)C(=O)N[C@@H](CC(=O)O)C(=O)N[C@@H](CCCNC(=N)N)C(=O)N[C@@H](Cc1ccccc1)C(=O)NCC(=O)O` [CTX-1182, Nle-D-Nle-His-Phe-Arg-D-Trp-Asp-Arg-Phe-Gly] (Ac-[Nle][dNle]HFR[dW]DRFG-OH), for which the “MC3R selectivity (relative to MC4R)” value worked out at 1406.

For the compound `CC(=O)N[C@H](C(=O)NCC(=O)N[C@@H](Cc1c[nH]cn1)C(=O)N[C@@H](Cc1ccccc1)C(=O)N[C@@H](CCCNC(=N)N)C(=O)N[C@H](Cc1c[nH]c2ccccc12)C(=O)N[C@@H](CC(=O)O)C(N)=O)[C@@H](C)O` [CTX-1112, Thr-Gly-His-Phe-Arg-D-Trp-Asp] (Ac-TGHFR[dW]D-NH2), the “MC3R selectivity (relative to MC4R)” value was 8.6.

Turning to `CCCC[C@H](NC(C)=O)C(=O)N[C@H](C)C(=O)N[C@@H](Cc1c[nH]cn1)C(=O)N[C@@H](Cc1ccccc1)C(=O)N[C@@H](CCCNC(=N)N)C(=O)N[C@H](Cc1c[nH]c2ccccc12)C(=O)N[C@@H](CC(=O)O)C(=O)N[C@@H](CCCNC(=N)N)C(=O)N[C@@H](Cc1ccccc1)C(=O)N[C@H](C(=O)O)C(C)C` [CTX-1538, Nle-D-Ala-His-Phe-Arg-D-Trp-Asp-Arg-Phe-Val] (Ac-[Nle][dA]HFR[dW]DRFV-OH), the “MC3R selectivity (relative to MC4R)” value is reported as 1,276.

Regarding `CCCC[C@H](NC(C)=O)C(=O)N[C@@H](C(=O)N[C@@H](Cc1c[nH]cn1)C(=O)N[C@@H](Cc1ccccc1)C(=O)N[C@@H](CCCNC(=N)N)C(=O)N[C@H](Cc1c[nH]c2ccccc12)C(=O)N[C@@H](CC(=O)O)C(=O)N[C@@H](CCCNC(=N)N)C(=O)N[C@@H](Cc1ccccc1)C(=O)NCC(=O)O)C(C)C` [CTX-1181, Nle-D-Val-His-Phe-Arg-D-Trp-Asp-Arg-Phe-Gly] (Ac-[Nle][dV]HFR[dW]DRFG-OH), the “MC3R selectivity (relative to MC4R)” value amounted to 718.

Regarding `CCCC[C@H](NC(C)=O)C(=O)N[C@H](C)C(=O)N[C@@H](Cc1c[nH]cn1)C(=O)N[C@@H](Cc1ccccc1)C(=O)N[C@@H](CCCNC(=N)N)C(=O)N[C@H](Cc1c[nH]c2ccccc12)C(=O)N[C@@H](CC(=O)O)C(=O)N[C@@H](CCCNC(=N)N)C(=O)N[C@H](Cc1ccccc1)C(N)=O` [CTX-1159, Nle-D-Ala-His-Phe-Arg-D-Trp-Asp-Arg-D-Phe] (Ac-[Nle][dA]HFR[dW]DR[dF]-NH2), the “MC3R selectivity (relative to MC4R)” value came out at 213.
